According to patent US5591741A, “Fungicidal spiroheterocyclic derivatives” (American Cyanamid Company, priority 1993, dated 1997):

Legend:
Leptosphaeria nodorum = assay: Activity against wheat leafspot (LN); format: in vivo; conditions: direct therapeutic foliar spray, 600 ppm, 6-8 days
Method in brief: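 Wheat cv Norman at single-leaf stage spray-inoculated with 1.5×10^6 conidia/ml, held 24 h at high humidity, then sprayed therapeutically with test compound at 600 ppm. Kept 6-8 days at 22° C, 70% humidity; lesion density per leaf rated against untreated or diluent-sprayed controls.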

[1] = system: Pseudocercosporella herpotrichoides; assay: Activity against wheat eyespot in-vitro (PHI); format: cell-based; conditions: 10 ppm, 10 days, 20° C., mycelial growth
Method in brief: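 P. herpotrichoides mycelial fragments (5×10^4/ml) grown in half-strength PDB with compound at 10 ppm final, added from acetone. Incubated 10 days at 20 °C; mycelial growth rated against untreated or diluent controls.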

Phytophthora infestans = format: in vivo; conditions: tomato, direct protectant foliar spray
Botrytis cinerea = assay: Direct protectant activity against broad bean grey mould (BCB); format: in vivo; conditions: direct protectant foliar spray, 600 ppm, 4 days
Method in brief: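 Broad bean plants (cv The Sutton, two leaf pairs) sprayed on upper leaf surfaces at 600 ppm, then inoculated 24 h later with 10^6 conidia/ml. Kept 4 days at 22 °C, high humidity; disease control rated from % leaf area with lesions against untreated or diluent controls.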

Venturia inaequalis = assay: Activity against apple scab in-vitro (VII); format: cell-based; conditions: 10 ppm, 10 days, 20° C., mycelial growth
Method in brief: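 Compound in acetone was tested at 10 ppm final in half-strength Potato Dextrose Broth inoculated with V. inaequalis mycelial fragments and spores at 5×10^4 propagules/ml. After 10 days at 20° C, mycelial growth was rated against untreated or diluent controls.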

[2] = system: Erysiphe graminis f.sp. hordei; assay: Direct protectant activity against barley powdery mildew (EGP); format: in vivo; conditions: direct protectant foliar spray, 8 days
Method in brief: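 Barley seedlings (cv Golden Promise, single-leaf stage) were foliar-sprayed, held 24 h at 18 °C/40% RH, then dusted with mildew conidia. After 8 days at 18 °C/40% RH, sporulating leaf area was scored as a rating against untreated or diluent-sprayed controls.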

Rhizoctonia solani = assay: Activity against Rhizoctonia in-vitro (RSI); format: cell-based; conditions: 10 ppm, 10 days, 20° C., mycelial growth
Method in brief: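 R. solani mycelial fragments (5×10^4/ml) in half-strength Potato Dextrose Broth with compound added from acetone to 10 ppm final. Mycelial growth assessed after 10 days at 20° C, rated against untreated or diluent control.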

[3] = system: Erysiphe graminis f.sp. hordei; assay: Activity against barley powdery mildew, direct therapeutic (EGT); format: in vivo; conditions: direct therapeutic foliar spray, 600 ppm, up to 7 days
Method in brief: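 Barley seedlings (cv. Golden Promise, single-leaf stage) were dusted with mildew conidia one day before a therapeutic foliar spray of 600 ppm compound. Plants were kept at 18 °C and 40% humidity for up to 7 days, and sporulating leaf area was rated against untreated or diluent-sprayed controls.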

Alternaria solani = assay: Activity against tomato early blight (AS); format: in vivo; conditions: Table VI; tomato seedlings, contact prophylactic foliar spray, 4 days
Method in brief: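 Foliar contact prophylactic spray on tomato seedlings (cv Outdoor Girl, second true leaf expanded) in acetone/water 50:50 with 0.04% Tween 20; 24 h at 20° C, 40% R.H., then inoculation with 10^4 spores/ml A. solani conidia. Kept moist at 21° C; lesion cover rated 4 days post-inoculation against untreated or diluent-sprayed controls.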

Plasmopara viticola = assay: Antisporulant activity against vine downy mildew (PVA); format: in vivo; conditions: vine leaves, antisporulant foliar spray, 600 ppm, 750 l/ha
Method in brief: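 Cabernet Sauvignon vines (~8 cm) inoculated on lower leaf surfaces with 5×10^4 zoosporangia/ml, held 24 h at 21° C high humidity then 24 h glasshouse. Infected leaves sprayed underside with 600 ppm compound in 1:1 water/acetone, 0.04% Tween 20, 750 l/ha; 96 h glasshouse, 24 h humidity. Sporulating leaf area rated versus control.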

Pyricularia oryzae = format: in vivo; conditions: rice seedlings, direct therapeutic foliar spray, 600 ppm, 4-5 days

In the case of `CCCN(CCC)C1COC2(CCC(C(C)(C)C)CC2)C1` (centres unmarked) [Compound 13], the “disease control rating LN” value (Leptosphaeria nodorum) is reported as 0 (less than 50% disease control), the “disease control rating PHI” value [1] is reported as 0 (less than 50% disease control) and the “disease control rating PIP” value (Phytophthora infestans) is reported as 0 (less than 50% disease control). The “disease control rating BCB” value (Botrytis cinerea) was 0 (less than 50% disease control), the “disease control rating VII” value (Venturia inaequalis) was 2 (greater than 80% disease control) and the “disease control rating EGP” value [2] was 2 (greater than 80% disease control). The “disease control rating RSI” value (Rhizoctonia solani) was 0 (less than 50% disease control), the “disease control rating EGT” value [3] was 2 (greater than 80% disease control) and the “disease control rating AS” value (Alternaria solani) was 0 (less than 50% disease control). For the same compound, the “disease control rating PVA” value (Plasmopara viticola) was 0 (less than 50% disease control) and the “disease control rating PO” value (Pyricularia oryzae) was 0 (less than 50% disease control).
For `CC1CC(C)CN(C2COC3(CCC(c4ccccc4)CC3)C2)C1` (centres unmarked) [Compound 57], the “disease control rating LN” value (Leptosphaeria nodorum) was 1 (about 50-80% disease control), the “disease control rating PHI” value [1] was 0 (less than 50% disease control) and the “disease control rating PIP” value (Phytophthora infestans) was 0 (less than 50% disease control). The “disease control rating BCB” value (Botrytis cinerea) was 0 (less than 50% disease control), the “disease control rating VII” value (Venturia inaequalis) was 1 (about 50-80% disease control) and the “disease control rating EGP” value [2] was 2 (greater than 80% disease control). For the same compound, the “disease control rating RSI” value (Rhizoctonia solani) was 0 (less than 50% disease control), the “disease control rating EGT” value [3] was 2 (greater than 80% disease control) and the “disease control rating AS” value (Alternaria solani) was 0 (less than 50% disease control). For the same compound, the “disease control rating PVA” value (Plasmopara viticola) was 0 (less than 50% disease control) and the “disease control rating PO” value (Pyricularia oryzae) was 0 (less than 50% disease control).
In the case of `CC(C)(C)C1CCC2(CC1)CC(CNC1CCCCC1)CO2` (centres unmarked) [Compound 182, 8-t-Butyl-3-cyclohexylaminomethyl-1-oxaspiro(4,5)decane], the “disease control rating LN” value (Leptosphaeria nodorum) is reported as 1 (about 50-80% disease control), the “disease control rating PHI” value [1] is reported as 1 (about 50-80% disease control) and the “disease control rating PIP” value (Phytophthora infestans) is reported as 0 (less than 50% disease control). The “disease control rating BCB” value (Botrytis cinerea) was 1 (about 50-80% disease control), the “disease control rating VII” value (Venturia inaequalis) was 2 (greater than 80% disease control) and the “disease control rating EGP” value [2] was 2 (greater than 80% disease control). The “disease control rating RSI” value (Rhizoctonia solani) was 2 (greater than 80% disease control), the “disease control rating EGT” value [3] was 2 (greater than 80% disease control) and the “disease control rating AS” value (Alternaria solani) was 0 (less than 50% disease control). For the same compound, the “disease control rating PVA” value (Plasmopara viticola) was 0 (less than 50% disease control) and the “disease control rating PO” value (Pyricularia oryzae) was 0 (less than 50% disease control).
In the case of `CC1CCCN(C2COC3(CCC(C(C)(C)C)CC3)C2)C1` (centres unmarked) [Compound 18], the “disease control rating LN” value (Leptosphaeria nodorum) is reported as 1 (about 50-80% disease control), the “disease control rating PHI” value [1] is reported as 0 (less than 50% disease control) and the “disease control rating PIP” value (Phytophthora infestans) is reported as 0 (less than 50% disease control). For the same compound, the “disease control rating BCB” value (Botrytis cinerea) was 0 (less than 50% disease control), the “disease control rating VII” value (Venturia inaequalis) was 1 (about 50-80% disease control) and the “disease control rating EGP” value [2] was 2 (greater than 80% disease control). The “disease control rating RSI” value (Rhizoctonia solani) was 0 (less than 50% disease control), the “disease control rating EGT” value [3] was 2 (greater than 80% disease control) and the “disease control rating AS” value (Alternaria solani) was 0 (less than 50% disease control). For the same compound, the “disease control rating PVA” value (Plasmopara viticola) was 0 (less than 50% disease control) and the “disease control rating PO” value (Pyricularia oryzae) was 0 (less than 50% disease control).
`CCC(C)(C)C1CCC2(CC1)CC(NC1CCCCC1)CO2` (centres unmarked) [Compound 51] was tested, and the “disease control rating LN” value (Leptosphaeria nodorum) was 0 (less than 50% disease control), the “disease control rating PHI” value [1] was 1 (about 50-80% disease control) and the “disease control rating PIP” value (Phytophthora infestans) was 2 (greater than 80% disease control). The “disease control rating BCB” value (Botrytis cinerea) was 0 (less than 50% disease control), the “disease control rating VII” value (Venturia inaequalis) was 1 (about 50-80% disease control) and the “disease control rating EGP” value [2] was 2 (greater than 80% disease control). For the same compound, the “disease control rating RSI” value (Rhizoctonia solani) was 1 (about 50-80% disease control), the “disease control rating EGT” value [3] was 2 (greater than 80% disease control) and the “disease control rating AS” value (Alternaria solani) was 2 (greater than 80% disease control). The “disease control rating PVA” value (Plasmopara viticola) was 0 (less than 50% disease control) and the “disease control rating PO” value (Pyricularia oryzae) was 0 (less than 50% disease control).
For `CC(C)(C)C1CCC2(CC1)CC(N1CCc3ccccc3C1)CO2` (centres unmarked) [Compound 114], the “disease control rating LN” value (Leptosphaeria nodorum) was 0 (less than 50% disease control), the “disease control rating PHI” value [1] was 0 (less than 50% disease control) and the “disease control rating PIP” value (Phytophthora infestans) was 2 (greater than 80% disease control). For the same compound, the “disease control rating BCB” value (Botrytis cinerea) was 2 (greater than 80% disease control), the “disease control rating VII” value (Venturia inaequalis) was 1 (about 50-80% disease control) and the “disease control rating EGP” value [2] was 2 (greater than 80% disease control). The “disease control rating RSI” value (Rhizoctonia solani) was 0 (less than 50% disease control), the “disease control rating EGT” value [3] was 2 (greater than 80% disease control) and the “disease control rating AS” value (Alternaria solani) was 1 (about 50-80% disease control). The “disease control rating PVA” value (Plasmopara viticola) was 0 (less than 50% disease control) and the “disease control rating PO” value (Pyricularia oryzae) was 0 (less than 50% disease control).
With `CCCCCCN(C)C1COC2(CCC(C(C)(C)C)CC2)C1` (centres unmarked) [Compound 14] the “disease control rating LN” value (Leptosphaeria nodorum) was 1 (about 50-80% disease control), the “disease control rating PHI” value [1] was 2 (greater than 80% disease control) and the “disease control rating PIP” value (Phytophthora infestans) was 0 (less than 50% disease control). The “disease control rating BCB” value (Botrytis cinerea) was 0 (less than 50% disease control), the “disease control rating VII” value (Venturia inaequalis) was 2 (greater than 80% disease control) and the “disease control rating EGP” value [2] was 2 (greater than 80% disease control). The “disease control rating RSI” value (Rhizoctonia solani) was 1 (about 50-80% disease control), the “disease control rating EGT” value [3] was 2 (greater than 80% disease control) and the “disease control rating AS” value (Alternaria solani) was 0 (less than 50% disease control). The “disease control rating PVA” value (Plasmopara viticola) was 0 (less than 50% disease control) and the “disease control rating PO” value (Pyricularia oryzae) was 0 (less than 50% disease control).
For `Clc1ccc(CNC2COC3(CCCCC3)C2)cc1` (centres unmarked) [Compound 34], the “disease control rating LN” value (Leptosphaeria nodorum) was 0 (less than 50% disease control), the “disease control rating PHI” value [1] was 0 (less than 50% disease control) and the “disease control rating PIP” value (Phytophthora infestans) was 0 (less than 50% disease control). For the same compound, the “disease control rating BCB” value (Botrytis cinerea) was 0 (less than 50% disease control), the “disease control rating VII” value (Venturia inaequalis) was 0 (less than 50% disease control) and the “disease control rating EGP” value [2] was 2 (greater than 80% disease control). For the same compound, the “disease control rating RSI” value (Rhizoctonia solani) was 0 (less than 50% disease control), the “disease control rating EGT” value [3] was 2 (greater than 80% disease control) and the “disease control rating AS” value (Alternaria solani) was 0 (less than 50% disease control). The “disease control rating PVA” value (Plasmopara viticola) was 0 (less than 50% disease control) and the “disease control rating PO” value (Pyricularia oryzae) was 0 (less than 50% disease control).
In the case of `CCCCCCCNC1COC2(CCC(C(C)(C)C)CC2)C1` (centres unmarked) [Compound 5], the “disease control rating LN” value (Leptosphaeria nodorum) is reported as 0 (less than 50% disease control), the “disease control rating PHI” value [1] is reported as 0 (less than 50% disease control) and the “disease control rating PIP” value (Phytophthora infestans) is reported as 0 (less than 50% disease control). For the same compound, the “disease control rating BCB” value (Botrytis cinerea) was 1 (about 50-80% disease control), the “disease control rating VII” value (Venturia inaequalis) was 0 (less than 50% disease control) and the “disease control rating EGP” value [2] was 2 (greater than 80% disease control). The “disease control rating RSI” value (Rhizoctonia solani) was 1 (about 50-80% disease control), the “disease control rating EGT” value [3] was 2 (greater than 80% disease control) and the “disease control rating AS” value (Alternaria solani) was 0 (less than 50% disease control). For the same compound, the “disease control rating PVA” value (Plasmopara viticola) was 0 (less than 50% disease control) and the “disease control rating PO” value (Pyricularia oryzae) was 0 (less than 50% disease control).
`CCCCN(CCCC)C1COC2(CCC(C(C)(C)C)CC2)C1` (centres unmarked) [Compound 12] was tested, and the “disease control rating LN” value (Leptosphaeria nodorum) was 0 (less than 50% disease control), the “disease control rating PHI” value [1] was 0 (less than 50% disease control) and the “disease control rating PIP” value (Phytophthora infestans) was 0 (less than 50% disease control). For the same compound, the “disease control rating BCB” value (Botrytis cinerea) was 2 (greater than 80% disease control), the “disease control rating VII” value (Venturia inaequalis) was 2 (greater than 80% disease control) and the “disease control rating EGP” value [2] was 2 (greater than 80% disease control). For the same compound, the “disease control rating RSI” value (Rhizoctonia solani) was 0 (less than 50% disease control), the “disease control rating EGT” value [3] was 2 (greater than 80% disease control) and the “disease control rating AS” value (Alternaria solani) was 0 (less than 50% disease control). The “disease control rating PVA” value (Plasmopara viticola) was 0 (less than 50% disease control) and the “disease control rating PO” value (Pyricularia oryzae) was 0 (less than 50% disease control).
